# According to US20100285959A1, “HERBICIDAL MIXTURES” (priority 2006, published 2010):
# Key:
# winter wheat (TRZAW) = experiment: Test 20 growth chamber, postemergence; assay type: in vivo, Triticum aestivum; conditions: 25 DAA
# Experimental: A test was conducted to evaluate the effects on winter barley (HORVW, Hordeum vulgare L.) and winter wheat (TRZAW, Triticum aestivum L.) of mixtures of Compound 2 with the commercial herbicides (2,4-dichlorophenoxy)acetic acid (2,4-D) and (4-chloro-2-methylphenoxy)acetic acid (MCPA), auxin mimics. […] Plants were treated postemergence at the 2-leaf growth stage, and each treatment was replicated a total of four times (three times in the loam/sand blend and one time in RediEarth). […] Plants were watered as needed. […] Results are the means of the four replicates.
# kochia (KCHSC) = experiment: Test 22 growth chamber, postemergence; assay type: in vivo, Kochia scoparia; conditions: 25 DAA
# Experimental: (§1) A test was conducted to evaluate the effects on winter barley (HORVW, Hordeum vulgare L.), winter wheat (TRZAW, Triticum aestivum L.), and several weed species of mixtures of Compound 2 with the commercial herbicides (2,4-dichlorophenoxy)acetic acid (2,4-D) and (4-chloro-2-methylphenoxy)acetic acid (MCPA), auxin mimics. […] Plants were treated postemergence at the 2-4 leaf growth stage, except KCHSC, SASKR and STEME which were in the 4-8 leaf growth stage. Each treatment was replicated one time. […] Plants were watered as needed. […] Results are from single replicates.
# redroot pigweed (AMARE) = experiment: Test 23 growth chamber, postemergence; assay type: in vivo, Amaranthus retroflexus; conditions: 21 DAA
# Experimental: as §1, with “stage,” for “stage, except KCHSC, SASKR”, “each” for “STEME which were in the 4-8 leaf growth stage. Each”, “three times.” for “one time.”, “means of the three” for “from single”
# field poppy (PAPRH) = experiment: Test 23 growth chamber, postemergence; assay type: in vivo, Papaver rhoeas; conditions: 21 DAA
# Experimental: as §1, with “stage,” for “stage, except KCHSC, SASKR”, “each” for “STEME which were in the 4-8 leaf growth stage. Each”, “three times.” for “one time.”, “means of the three” for “from single”
# wild buckwheat (POLCO) = experiment: Test 23 growth chamber, postemergence; assay type: in vivo, Polygonum convolvulus; conditions: 21 DAA
# Experimental: as §1, with “stage,” for “stage, except KCHSC, SASKR”, “each” for “STEME which were in the 4-8 leaf growth stage. Each”, “three times.” for “one time.”, “means of the three” for “from single”
# [1] = system: Virginia pepperweed (LEPVI); experiment: Test 3 field trial, emerged weeds before corn planting; assay type: in vivo, Lepidium virginicum; conditions: Cpd 2 100, glyphosate 1540, paraquat 1150 g a.i./ha, alone or combined
# Description: (§2) Corn seeds (hybrid ‘Pioneer 33J56’) were planted in early spring season, 3.8 cm deep in a silt loam soil having 2.4% organic matter and a pH of 6. Plots were 6.1 m long by 2.7 m wide with rows spaced 91.4 cm apart. The field was managed using no-till practices. […] Compound 2 and paraquat treatments, alone and in combination, also included a surfactant. Glyphosate, alone and with Compound 2, included ammonium sulfate in the treatment mixture. […] The effects on the weeds in the treated plots and untreated control plots were recorded 30, 42, 46 and 68 days after application. Most of the weed species could not be evaluated at every timing. Corn response was not evaluated because the growth was highly variable depending on the efficacy of the weed control treatments. […] Results are the means of the three replicates.
# common chickweed (STEME) = experiment: as above; assay type: in vivo, Stellaria media; conditions: Cpd 2 100, glyphosate 1540, paraquat 1150 g a.i./ha, alone or combined
# Description: as §2
# shepherd's purse (CAPBP) = experiment: Test 9 field trial, emerged weeds before corn planting; assay type: in vivo, Capsella bursa-pastoris; conditions: g a.i./ha: Cpd 2 100, Glyphosate 1540, Paraquat 1150
# Experimental: Corn seeds (hybrid ‘Pioneer 34M91 RR’) were planted in mid spring season, about 3.8 cm deep in a silty clay loam soil having a pH of 6.7. Plots were 9.1 m long by 3.0 m. The field was managed using no-till practices. […] Compound 2 and paraquat treatments, alone and in combination, also included a surfactant. Glyphosate, alone and with Compound 2, included ammonium sulfate in the treatment mixture. […] The effects on the weeds in the treated plots and untreated control plots were recorded 7, 14, 23, 30 and 57 days after application. Most of the weed species could not be evaluated at every timing. Corn response was only evaluated 57 days after application. […] Results are the means of the three replicates.
# annual grasses (GGGAN) = experiment: Test 7 field trial, preemergence; assay type: in vivo, Gramineae
# Experimental: Plots were 7.6 m long by 3.0 m wide with rows spaced 76 cm apart. Seeds were spaced 15 cm apart within the rows. The field was managed using conventional tillage practices. […] Wild radish was evaluated 14 and 28 days after application. […] Results are the means of the three replicates.
# flint corn (ZEAMI) = experiment: Test 12 field trial, preemergence; assay type: in vivo, Zea mays L. ssp. indurata; conditions: Cpd 2 or Cpd 1 62 g a.i./ha, Diuron 2000 g a.i./ha
# Description: (§3) In early-mid spring season, corn seeds (hybrid ‘Pioneer 3041’) were planted 5 cm deep and sugarcane nodes (variety RB-72.454) were planted 10 cm deep in separate plots in a clay soil having 2.6% organic matter and a pH of 5.6. Plots were 24 m long by 1.5 m wide with rows spaced 80 cm (corn) or 140 cm (sugarcane) apart. Corn seeds were spaced 15 cm apart and sugarcane nodes were spaced 10 cm apart within the rows. At the same time, weed seeds were broadcast over the surface of separate plots without a crop, one weed species per plot. The weed plots were rotary tilled to incorporate the weed seeds to a variety of depths. The field was managed using conventional tillage practices.
# sicklepod (CASOB) = experiment: Test 12 field trial, preemergence; assay type: in vivo, Cassia obtusifolia; design: scale not given here; conditions: Cpd 2 or Cpd 1 62 g a.i./ha, Diuron 2000 g a.i./ha
# Description: as §3
# common purslane (POROL) = experiment: Test 12 field trial, preemergence; assay type: in vivo, Portulaca oleracea; conditions: Cpd 2 or Cpd 1 62 g a.i./ha, Diuron 2000 g a.i./ha
# Description: as §3
# [2] = 2,4-D or MCPA alone 250 g a.i./ha
compound,measurement,setting,value
"O=C(O)COc1ccc(Cl)cc1Cl [2,4-D, (2,4-dichlorophenoxy)acetic acid]",Postemergence TRZAW Obs,winter wheat (TRZAW); [2],18
same,Postemergence KCHSC Obs,kochia (KCHSC); [2],60
same,Postemergence AMARE Obs,redroot pigweed (AMARE); [2],67
same,Postemergence PAPRH Obs,field poppy (PAPRH); [2],52
same,Postemergence POLCO Obs,wild buckwheat (POLCO); [2],58
O=C(O)CNCP(=O)(O)O [Glyphosate],LEPVI Obs,[1]; 30 DAA,98%
same,LEPVI Obs,[1]; 42 DAA,82%
same,LEPVI Obs,[1]; 46 DAA,98%
same,STEME Obs,common chickweed (STEME); 30 DAA,100%
same,STEME Obs,common chickweed (STEME); 42 DAA,88%
same,STEME Obs,common chickweed (STEME); 46 DAA,100%
same,CAPBP Obs,shepherd's purse (CAPBP); 7 DAA,52%
same,CAPBP Obs,shepherd's purse (CAPBP); 14 DAA,73%
same,CAPBP Obs,shepherd's purse (CAPBP); 23 DAA,88%
same,CAPBP Obs,shepherd's purse (CAPBP); 30 DAA,98%
same,CAPBP Obs,shepherd's purse (CAPBP); 57 DAA,100%
"CCc1cccc(C)c1N(C(=O)CCl)[C@@H](C)COC [S-Metolachlor, S-metolachlor, reference compound]",GGGAN Obs,"annual grasses (GGGAN); 14 DAA, 1000 g a.i./ha",97%
same,GGGAN Obs,"annual grasses (GGGAN); 28 DAA, 1000 g a.i./ha",93%
same,GGGAN Obs,"annual grasses (GGGAN); 62 DAA, 1000 g a.i./ha",75%
"Nc1nc(C2CC2)nc(C(=O)O)c1Cl [Compound 1, 6-amino-5-chloro-2-cyclopropyl-4-pyrimidinecarboxylic acid]",ZEAMI Obs,flint corn (ZEAMI); 15 DAA,0%
same,ZEAMI Obs,flint corn (ZEAMI); 29 DAA,10%
same,ZEAMI Obs,flint corn (ZEAMI); 48 DAA,20%
same,ZEAMI Obs,flint corn (ZEAMI); 61 DAA,15%
same,CASOB Obs,sicklepod (CASOB); 15 DAA,60
same,CASOB Obs,sicklepod (CASOB); 29 DAA,70
same,CASOB Obs,sicklepod (CASOB); 48 DAA,90
same,CASOB Obs,sicklepod (CASOB); 61 DAA,90
same,POROL Obs,common purslane (POROL); 15 DAA,90
same,POROL Obs,common purslane (POROL); 29 DAA,97
same,POROL Obs,common purslane (POROL); 48 DAA,100
same,POROL Obs,common purslane (POROL); 61 DAA,100
"COC(=O)c1nc(C2CC2)nc(N)c1Cl [Compound 2, methyl 6-amino-5-chloro-2-cyclopropyl-4-pyrimidinecarboxylate]",LEPVI Obs,[1]; 30 DAA,69%
same,LEPVI Obs,[1]; 42 DAA,18%
same,LEPVI Obs,[1]; 46 DAA,23%
same,STEME Obs,common chickweed (STEME); 30 DAA,62%
same,STEME Obs,common chickweed (STEME); 42 DAA,37%
same,STEME Obs,common chickweed (STEME); 46 DAA,30%
same,GGGAN Obs,"annual grasses (GGGAN); 14 DAA, 125 g a.i./ha",33%
same,GGGAN Obs,"annual grasses (GGGAN); 14 DAA, 250 g a.i./ha",65%
same,GGGAN Obs,"annual grasses (GGGAN); 14 DAA, 500 g a.i./ha",67%
same,GGGAN Obs,"annual grasses (GGGAN); 28 DAA, 125 g a.i./ha",33%
same,GGGAN Obs,"annual grasses (GGGAN); 28 DAA, 250 g a.i./ha",48%
same,GGGAN Obs,"annual grasses (GGGAN); 28 DAA, 500 g a.i./ha",52%
same,GGGAN Obs,"annual grasses (GGGAN); 62 DAA, 125 g a.i./ha",0%
same,GGGAN Obs,"annual grasses (GGGAN); 62 DAA, 250 g a.i./ha",0%
same,GGGAN Obs,"annual grasses (GGGAN); 62 DAA, 500 g a.i./ha",0%
same,CAPBP Obs,shepherd's purse (CAPBP); 7 DAA,23%
same,CAPBP Obs,shepherd's purse (CAPBP); 14 DAA,17%
same,CAPBP Obs,shepherd's purse (CAPBP); 23 DAA,7%
same,CAPBP Obs,shepherd's purse (CAPBP); 30 DAA,0%
same,CAPBP Obs,shepherd's purse (CAPBP); 57 DAA,0%
same,ZEAMI Obs,flint corn (ZEAMI); 15 DAA,15%
same,ZEAMI Obs,flint corn (ZEAMI); 29 DAA,10%
same,ZEAMI Obs,flint corn (ZEAMI); 48 DAA,0%
same,ZEAMI Obs,flint corn (ZEAMI); 61 DAA,15%
same,CASOB Obs,sicklepod (CASOB); 15 DAA,60
same,CASOB Obs,sicklepod (CASOB); 29 DAA,80
same,CASOB Obs,sicklepod (CASOB); 48 DAA,60
same,CASOB Obs,sicklepod (CASOB); 61 DAA,50
same,POROL Obs,common purslane (POROL); 15 DAA,60
same,POROL Obs,common purslane (POROL); 29 DAA,75
same,POROL Obs,common purslane (POROL); 48 DAA,90
same,POROL Obs,common purslane (POROL); 61 DAA,90
same,Postemergence TRZAW Obs,winter wheat (TRZAW); Cpd 2 alone 4 g a.i./ha,23
same,Postemergence TRZAW Obs,winter wheat (TRZAW); Cpd 2 alone 8 g a.i./ha,28
same,Postemergence TRZAW Obs,winter wheat (TRZAW); Cpd 2 alone 16 g a.i./ha,35
same,Postemergence KCHSC Obs,kochia (KCHSC); Cpd 2 alone 4 g a.i./ha,45
same,Postemergence KCHSC Obs,kochia (KCHSC); Cpd 2 alone 8 g a.i./ha,50
same,Postemergence KCHSC Obs,kochia (KCHSC); Cpd 2 alone 16 g a.i./ha,60
same,Postemergence AMARE Obs,redroot pigweed (AMARE); Cpd 2 alone 4 g a.i./ha,43
same,Postemergence AMARE Obs,redroot pigweed (AMARE); Cpd 2 alone 8 g a.i./ha,62
same,Postemergence AMARE Obs,redroot pigweed (AMARE); Cpd 2 alone 16 g a.i./ha,68
same,Postemergence PAPRH Obs,field poppy (PAPRH); Cpd 2 alone 4 g a.i./ha,53
same,Postemergence PAPRH Obs,field poppy (PAPRH); Cpd 2 alone 8 g a.i./ha,58
same,Postemergence PAPRH Obs,field poppy (PAPRH); Cpd 2 alone 16 g a.i./ha,72
same,Postemergence POLCO Obs,wild buckwheat (POLCO); Cpd 2 alone 4 g a.i./ha,48
same,Postemergence POLCO Obs,wild buckwheat (POLCO); Cpd 2 alone 8 g a.i./ha,53
same,Postemergence POLCO Obs,wild buckwheat (POLCO); Cpd 2 alone 16 g a.i./ha,55
